According to patent US20090104196A1, “Antibodies For Use in Identifying and/or Scoring Prostate Cancer and Androgen Receptor-Dependent Gene Expression Control” (priority 2005, published 2009):
Entries after “also recorded” stand apart in the source; their conditions may differ.

What was measured:
[1] = test system: LSD1-induced activation of AR; experiment: Transient transfection AR-dependent luciferase reporter assay in 293 cells (LSD1 + AR co-expression); format: cell-based; details: R1881, 3×10^−3 M pargyline, 1×10^−3 M deprenyl, or 1×10^−4 M clorgyline for 18 hours, FIG. 4c
Protocol: (§1) 293 and CV-1 cells were cultured and transfected as described^12. LNCaP cells were cultured in phenol-red-free RPMI1640 supplemented with 10% double-stripped fetal calf serum (dsFCS) and transfected with Effectene (Qiagen). The following amounts per well were used: MMTV-LUC, ARE2X-TATA-LUC, ARE2X-TK-LUC, TK-LUC, TREp-LUC, β-RE-LUC, ERE2X-TATA-LUC, PSA-LUC, Slp-ARU-TATA-LUC 500 ng each, 25 ng expression plasmids for AR, PR, ERα, RARα, and TRβ; 500 to 700 ng expression plasmids for LSD1 1-174, LSD1 175-246, LSD1 247-852, LSD1Δ281-360, LSD1ΔAO, pSUPER-control, and pSUPER-LSD1; 100 to 700 ng expression plasmids for LSD1 were transfected per well. […] Luciferase activity was assayed as described^9. All experiments were repeated at least five times in duplicate.

LSD1 = biological target: T1, LSD1 (Homo sapiens, UniProt O60341); experiment: Chromatin immunoprecipitation (ChIP) of histone methylation marks at the PSA promoter in LNCaP cells; format: cell-based
T1 construct: endogenous in cells; host or cells: LNCaP cells
Protocol: ChIP experiments were performed essentially as described^14. […] LNCaP cells were transfected three days before harvesting for ChIP with or without siRNA (Qiagen) following the manufacture's instructions. Immunoprecipitation was performed with specific antibodies (α-monoMeK9H3, α-diMeK9H3, α-triMeK9H3, α-monoMeK4H3, α-diMeK4H3, α-triMeK4H3, α-H3 (abcam), α-LSD1, and α-AR PG21 (Upstate Biotechnology) on GammaBind TMSepharose 4B (GE-Healthcare). For PCR, 1-5 μl out of 50 μl DNA extract was used. For Re-ChIP assays, immunoprecipitations were sequentially washed with TSE I, TSE II, buffer III, and TE^14. Complexes were eluted by incubation with 10 mM DTT at 37° C. for 30 min, diluted 50 times with dilution buffer^14 followed by a second immunoprecipitation with the indicated antibody. Primer sequences were as follows: exon 4, PSA (+3909/+4067) 5′-[…]-3′ and 5′-[…]-3′; middle, PSA (−2223/−1951) 5′-[…]-3′ and 5′-[…]-3′; PCR primers for ARE I+II (PSA (−459/−121)) and ARE III (PSA ([…])), GAPDH, and U6 have been previously described^7, 15, 16.

[2] = test system: other nuclear receptors (PR, ERα, RARα, TRβ); experiment: Reporter assays for other nuclear hormone receptors in 293 cells; format: cell-based; details: pargyline, FIG. 10k
Protocol: as §1

PSA gene = experiment: qRT-PCR of endogenous PSA gene expression in LNCaP cells; format: cell-based, human; details: pargyline, FIG. 4d
Protocol: DNAsel-treated RNA isolated using RNAwiz (Ambion) was used for reverse transcription. Quantitative PCR was performed in an ABI PRISM 7700 sequence detector. Product formation was detected by incorporation of SYBR Green I using ROX as a passive reference (ABgene). The expression ratios of the analyzed cDNAs were related to the normalized Cp of the housekeeping gene GAPDH in control and sample. The following primers were used: GAPDH: 5′-[…]-3′; 5′-[…]-3′; PSA: 5′-[…]-3′; 5′-[…]-3′. Statistical analysis for qPCR was performed by group-wise comparison based on PCR efficiencies and the mean crossing point deviation between sample and control group using Relative Expression Software Tool^19. Experiments were repeated and analysed three times.

[3] = R1881, PSA promoter, pargyline, FIG. 8

SMILES	LSD1-induced activation of AR [1]	demethylation of mono- and dimethyl H3-K9 during androgen-induced transcription (LSD1; R1881, PSA promoter (ARE I+II), pargyline 18 hours, FIG. 3b)	methylation levels of trimethyl H3-K9 (LSD1; R1881, PSA promoter, pargyline, FIG. 3b)	methylation status of H3-K27 (LSD1; [3])	methylation status of H4-K20 (LSD1; [3])	methylation of histone H3 at lysine 4 (H3-K4) (LSD1; in vivo ChIP, pargyline, FIG. 3b)	activity of other nuclear receptors [2]	androgen-induced expression of the endogenous PSA gene (PSA gene)	androgen-induced expression of the endogenous PSA gene (PSA gene; listed as Pargyline)
C#CCN(C)CCCOc1ccc(Cl)cc1Cl [clorgyline, N-methyl-N-propargyl-3-(2,4-dichlorophenoxy-)propylamine]	severely impair	–	–	–	–	–	–	–	–
C#CCN(C)[C@H](C)Cc1ccccc1 [deprenyl, (R)-(−)-N,2-dimethyl-N-2-propynylphenethylamine]	severely impair	–	–	–	–	–	–	–	–
C#CCN(C)Cc1ccccc1 [pargyline, N-methyl-N-2-propynylbenzylamine]	severely impair	blocks	remain unchanged	remain unchanged	remain unchanged	not influenced	does not influence; also recorded: fails to block	blocks	reduces
